pIC50: −log10 of the molar value.

Assay [1] deals with HCT116, a colorectal carcinoma cell line. Description: Tetrazolium dye proliferation assay (MTT assay). Type of assay: cell-based. The following applies: Homo sapiens, HCT-116, HCT116 cells, inhibition of cell proliferation. The procedure:
Proliferation was evaluated by the tetrazolium dye assay according to the procedure of Denizot and Lang (Denizot, F. and Lang, R. J Immunol Methods 1986, 89, 271-277). The cell line used was HCT116, a colorectal carcinoma cell line obtained from the American Type Cell Culture Collection (ATCC; Rockville, Md.). The cells were grown in McCoy's 5A medium supplemented with 10% FCS and L-glutamine.
Cells were plated at the appropriate seeding density to give logarithmic growth over the course of the assay in a 96-well tissue culture plate. Plates were incubated overnight at 37° C. in a humidified incubator with 5% CO2. The next day, test compounds were serially diluted to four times the final concentration in the appropriate medium containing 1.2% DMSO. One-fourth final volume of each dilution was added in duplicate to the plates containing cells. The same volume of 1.2% DMSO in medium was added to a row of “control wells” such that the final concentration of DMSO in each well was 0.3%. Wells to which no cells were added served as the “blank.” Wells to which no inhibitor was added served as “no inhibitor control.” The plates were) returned to the incubator, and at set time points (determined by their growth curves) plates were analyzed as described below.
3-(4,5-dimethylthiazole-2-yl)-2,5-diphenyl-2H-tetrazolium bromide (thiazolyl blue; MTT; Sigma) was added to each well to yield a final concentration of 1 mg/ml. Plates were returned to the incubator for 2.5-3 hours at 37° C. The MTT-containing medium was removed and the resulting formazan metabolite was solubilized in 100% ethanol with shaking for 15 minutes at room temperature. Absorbance readings were taken in a microtiter plate reader (Dynatech and Molecular Devices plate readers were used interchangeably) at a wavelength of 570 nm with a 650 nm reference. Percent inhibition (% INH) is calculated by subtracting the absorbance of the blank well from all wells, then subtracting the ratio of the average absorbance of each test duplicate (SAVE) by the average of the controls (CAVE) from 1.00. The final number is then multiplied by 100 (% INH=(1.00−SAVE/CAVE)×100). The concentration at which 50% inhibition of cell proliferation is obtained (the IC50) is determined from the linear regression of a plot of the logarithm of the concentration versus percent inhibition.

Assay [2] deals with human cyclin D1-CDK4 (Homo sapiens, UniProt P11802). Description: FlashPlate kinase assay, cyclin D1-CDK4, Rb substrate. Type of assay: biochemical. To be noted: recombinant cyclin D1-CDK4, Rb phosphorylation, 1 μM ATP. The protocol: (§1) To determine inhibition of Cdk4, Cdk2 and Cdk1 activity, kinase assays were conducted using FlashPlate™ assays (NEN™-Life Science Products). FlashPlate assays were performed using recombinant human cyclin B-CDK1, human cyclin E-CDK2 or human cyclin D1-CDK4 complexes. GST-cyclinE (GST-cycE), CDK2, GST-cyclinB (GST-cycB), CDK1, GST-CDK4 and cyclin D1 (cycD1) cDNA clones in baculovirus vectors were provided by Dr. W. Harper at the Baylor College of Medicine, Houston, Tex. Proteins were co-expressed in High Five™ insect cells and the complex was purified on glutathione Sepharose resin (Pharmacia, Piscataway, N.J.) as previously described (Harper, J. W. et al. Cell 1993, 75, 805-816). A 6×-Histidine tagged truncated form of retinoblastoma (Rb) protein (amino acid 386-928) was used as the substrate for the cycD1-CDK4, cycB-CDK1 and the cycE-CDK2 assays (the expression plasmid was provided by Dr. Veronica Sullivan, Department of Molecular Virology, Roche Research Centre, Welwyn Garden City, United Kingdom). The Rb protein is a natural substrate for phosphorylation by CDK4, CDK2 and CDK1 (see Herwig and Strauss Eur. J. Biochem. Vol. 246 (1997) pp. 581-601 and the references cited therein).
(§2) The expression of the 62 Kd protein was under the control of an IPTG inducible promoter in an M15 E. coli strain. Cells were lysed by sonication and purification was carried out by binding lysates at pH 8.0 to a Ni-chelated agarose column pretreated with 1 mM imidazole. The resin was then washed several times with incrementally decreasing pH buffers to pH 6.0, and eluted with 500 mM imidazole. Eluted protein was dialysed against 20 mM HEPES pH 7.5, 30% glycerol, 200 mM NaCl, and 1 mM DTT. Purified Rb fusion protein stocks were quantitated for protein concentration, aliquoted, and stored at −70° C.
(§3) For all three kinase assays reported herein, 96-well FlashPlates were coated with Rb protein at 10 μg/ml, using 100 μl per well. Plates were incubated at 4° C. overnight or at room temperature for 3 hours on a shaker. To control for nonspecific phosphorylation, one row of wells was coated with 100 μl/well coating buffer (20 mM HEPES, 0.2 M NaCl). Plates were then washed twice with wash buffer (0.01% Tween 20 in phosphate-buffered saline). Compounds to be tested (“test compounds”) were added to the wells at 5×final concentration. Reactions were initiated by immediate addition of 40 μl reaction mix (25 mM HEPES, 20 mM MgCl2, 0.002% Tween 20, 2 mM DTT, 1 μM ATP, 4 nM ^33P-ATP) and a sufficient amount of enzyme to give counts that were at least 10-fold above background. Plates were incubated at room temperature on a shaker for 30 minutes. Plates were washed four times with the wash buffer, sealed, and counted on the TopCount scintillation counter (Packard Instrument Co., Downers Grove, Ill.]. The percent inhibition of Rb phosphorylation, which is a measure of the inhibition of CDK activity, was determined according to the following formula: [formula]
(§4) where “test compound” refers to the average counts per minute of the test duplicates, “nonspecific” refers to the average counts per minute when no CyclinD/Cdk4, etc., was added, and “total” refers to the average counts per minute when no compound was added. The IC50 value is the concentration of test compound that reduces by 50% the protein-kinase induced incorporation of the radiolabel under the test conditions described.

Assay [3] deals with human cyclin B-CDK1 (Homo sapiens, UniProt P06493). Description: FlashPlate kinase assay, cyclin B-CDK1, Rb substrate. It counts as biochemical. To be noted: recombinant cyclin B-CDK1, Rb phosphorylation, 1 μM ATP. The protocol: as §1, §2, §3, §4
The target of assay [4] is human cyclin E-CDK2 (Homo sapiens, UniProt P24941). Briefly: FlashPlate kinase assay, cyclin E-CDK2, Rb substrate. It counts as biochemical. The following applies: recombinant cyclin E-CDK2, Rb phosphorylation, 1 μM ATP. The protocol:
as §1, §2, §3, §4

human cyclin B-CDK1, sequence (P06493 whole entry): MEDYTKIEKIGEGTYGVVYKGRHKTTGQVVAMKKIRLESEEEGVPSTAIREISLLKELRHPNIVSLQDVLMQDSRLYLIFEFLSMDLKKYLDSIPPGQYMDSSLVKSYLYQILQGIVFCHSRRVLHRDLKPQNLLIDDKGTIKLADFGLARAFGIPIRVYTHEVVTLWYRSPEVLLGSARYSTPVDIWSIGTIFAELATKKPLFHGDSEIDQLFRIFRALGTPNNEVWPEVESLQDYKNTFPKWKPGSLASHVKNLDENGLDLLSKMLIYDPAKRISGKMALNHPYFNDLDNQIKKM
human cyclin B-CDK1, sequence (P14635 whole entry partner): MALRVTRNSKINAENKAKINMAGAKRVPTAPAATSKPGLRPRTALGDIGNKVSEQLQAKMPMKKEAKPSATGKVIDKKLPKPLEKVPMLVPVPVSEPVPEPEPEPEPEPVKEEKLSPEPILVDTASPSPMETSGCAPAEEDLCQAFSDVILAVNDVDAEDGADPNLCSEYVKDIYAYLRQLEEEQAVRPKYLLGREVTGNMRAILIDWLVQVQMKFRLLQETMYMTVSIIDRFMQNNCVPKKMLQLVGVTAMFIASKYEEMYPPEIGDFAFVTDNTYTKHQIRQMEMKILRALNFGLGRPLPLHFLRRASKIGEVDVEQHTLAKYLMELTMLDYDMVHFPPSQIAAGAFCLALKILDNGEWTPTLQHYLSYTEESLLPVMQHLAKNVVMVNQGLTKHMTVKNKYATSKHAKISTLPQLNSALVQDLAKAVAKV
human cyclin D1-CDK4, sequence (P11802 whole entry): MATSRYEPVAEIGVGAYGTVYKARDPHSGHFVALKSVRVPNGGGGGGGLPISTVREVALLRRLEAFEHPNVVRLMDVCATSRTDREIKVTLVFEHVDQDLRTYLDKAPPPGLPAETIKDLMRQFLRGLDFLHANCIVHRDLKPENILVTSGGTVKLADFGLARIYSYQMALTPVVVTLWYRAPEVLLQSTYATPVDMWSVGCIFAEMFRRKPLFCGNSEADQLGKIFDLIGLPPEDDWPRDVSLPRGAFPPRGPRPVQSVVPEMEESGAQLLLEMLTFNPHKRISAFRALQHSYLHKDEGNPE
human cyclin D1-CDK4, sequence (P24385 whole entry partner): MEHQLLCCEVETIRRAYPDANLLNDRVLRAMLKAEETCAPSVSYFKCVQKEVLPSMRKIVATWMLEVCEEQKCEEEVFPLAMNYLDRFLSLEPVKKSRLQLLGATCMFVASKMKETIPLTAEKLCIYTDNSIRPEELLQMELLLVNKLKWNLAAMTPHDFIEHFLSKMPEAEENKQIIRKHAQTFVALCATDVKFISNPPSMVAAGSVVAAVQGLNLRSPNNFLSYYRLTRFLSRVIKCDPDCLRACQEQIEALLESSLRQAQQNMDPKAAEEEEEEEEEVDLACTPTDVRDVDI

As a reminder, the pIC50 is the negative decadic logarithm of the IC50, by convention in mol/L. Take `CCc1cc(C(=O)c2sc(Nc3ccc(OC[C@@H](C)N(C)C)cc3)nc2N)ccc1F` [Example 77, (R)-[4-Amino-2-[4-(2-dimethylamino-propoxy)-phenylamino]-thiazol-5-yl]-(3-ethyl-4-fluoro-phenyl)-methanone]: the pIC50 was 5.36 in assay [1], 7.10 in assay [2] and 5.11 in assay [3].
The corresponding values for `CCc1cc(C(=O)c2sc(Nc3ccc(OCCN4CCCC4)cc3)nc2N)ccc1F` [Example 76, [4-Amino-2-[4-(2-pyrrolidin-1-yl-ethoxy)-phenylamino]-thiazol-5-yl]-(3-ethyl-4-fluoro-phenyl)-methanone] are 5.43, 7.20 and 5.41.
The corresponding values for `CCNCCOc1ccc(Nc2nc(N)c(C(=O)c3ccc4c(c3)OCCO4)s2)cc1` [Example 134, [4-Amino-2-[4-(2-ethylamino-ethoxy)-phenylamino]-thiazol-5-yl]-(2,3-dihydro-benzo[1,4]dioxin-6-yl)-methanone] are 5.14, 7.36 and 5.71.
With `CCc1cc(C(=O)c2sc(Nc3ccc(OC4CCCN(CC)C4)cc3)nc2N)ccc1F` (centres unmarked) [Example 81, [4-Amino-2-[4-(1-ethyl-piperidin-3-yloxy)-phenylamino]-thiazol-5-yl]-(3-ethyl-4-fluoro-phenyl)-methanone], the pIC50 in assay [4] is 5.19; in assay [1] it was 5.37; in assay [2] it was 7.26.
For `CC1COc2ccc(C(=O)c3sc(Nc4ccc(OCCN5CCCC5)cc4)nc3N)cc21` (centres unmarked) [Example 140, [4-Amino-2-[4-(2-pyrrolidin-1-yl-ethoxy)-phenylamino]-thiazol-5-yl]-(3-methyl-2,3-dihydro-benzofuran-5-yl)-methanone], the pIC50 in assay [1] is 5.33; in assay [2], 7.20.
With `CC(C)NCCOc1ccc(Nc2nc(N)c(C(=O)c3ccc4c(c3)OCCO4)s2)cc1` [Example 136, [4-Amino-2-[4-(2-isopropylamino-ethoxy)-phenylamino]thiazol-5-yl]-(2,3-dihydro-benzo[1,4]dioxin-6-yl)-methanone], the pIC50 is 5.29 in assay [1], 7.35 in assay [2] and 5.76 in assay [3].
Take `CN(C)CCOc1ccc(Nc2nc(N)c(C(=O)c3ccc4c(c3)OCCO4)s2)cc1` [Example 58, [4-Amino-2-[4-(2-dimethylamino-ethoxy)-phenylamino]-thiazol-5-yl]-(2,3-dihydro-benzo[1,4]dioxin-6-yl)-methanone]: the figures for the negative-log IC50 (pIC50) in assay [1], in assay [2] and in assay [3] were 5.43, 7.37 and 6.05, respectively.
`CCN1CCCC(Oc2ccc(Nc3nc(N)c(C(=O)c4ccc(C)c(F)c4)s3)cc2)C1` (centres unmarked) [Example 87, [4-Amino-2-[4-(1-ethyl-piperidin-3-yloxy)-phenylamino]-thiazol-5-yl]-(3-fluoro-4-methyl-phenyl)-methanone]: the pIC50 in assay [4] is 6.02; in assay [2] it was 7.13; in assay [3], 6.35.
The corresponding values for `Cc1ccc(C(=O)c2sc(Nc3ccc(OCCN(C)C)cc3)nc2N)cc1F` [Example 73, [4-Amino-2-[4-(2-dimethylamino-ethoxy)-phenylamino]-thiazol-5-yl]-(3-fluoro-4-methyl-phenyl)-methanone] are 5.22, 7.00 and 5.93.
The corresponding values for `CCCc1cc(C(=O)c2sc(Nc3ccc(OC4CCCNC4)cc3)nc2N)ccc1O` (centres unmarked) [Example 99, [4-Amino-2-[4-(piperidin-3-yloxy)-phenylamino]-thiazol-5-yl]-(4-hydroxy-3-propyl-phenyl)-methanone] are 6.80, 7.42 and 6.76.
Consider `CCc1cccc(C(=O)c2sc(Nc3ccc(OC4CCCNC4)cc3)nc2N)c1` (centres unmarked) [Example 98, [4-Amino-2-[4-(piperidin-3-yloxy)-phenylamino]-thiazol-5-yl]-(3-ethyl-phenyl)-methanone], for which the values for the pIC50 in assay [4], in assay [2] and in assay [3] were 5.91, 7.47 and 6.28, respectively.
In the same order, the values of `CCCc1cc(C(=O)c2sc(Nc3ccc(OCCN(C)C)cc3)nc2N)ccc1O` [Example 106, [4-Amino-2-[4-(2-dimethylamino-ethoxy)-phenylamino]-thiazol-5-yl-](4-hydroxy-3-propyl-phenyl)-methanone; Compound With Acetic Acid] are 6.57, 7.77 and 6.46.
In the same order, the values of `Cc1cccc(C(=O)c2sc(Nc3ccc(OC[C@@H]4CCCN4C)cc3)nc2N)c1` [Example 111, (S)-[4-Amino-2-[4-(1-methyl-pyrrolidin-2-ylmethoxy)-phenylamino]-thiazol-5-yl]-m-tolyl-methanone] are 5.52, 7.07 and 5.81.
In the case of `CN(C)CCOc1ccc(Nc2nc(N)c(C(=O)c3ccc4c(c3)OCO4)s2)cc1` [Example 59, [4-Amino-2-[4-(2-dimethylamino-ethoxy)-phenylamino]-thiazol-5-yl]-benzo[1,3]dioxol-5-yl-methanone], the pIC50 in assay [4] was 5.25; in assay [2], 7.20; in assay [3], 6.36.
On to `Nc1nc(Nc2ccc(OC3CCCNC3)cc2)sc1C(=O)c1cccc(F)c1` (centres unmarked) [Example 46, [4-Amino-2-[4-(piperidin-3-yloxy)-phenylamino]-thiazol-5-yl]-(3-fluoro-phenyl)-methanone], for which the pIC50 is 5.94 in assay [4], 7.19 in assay [2] and 6.38 in assay [3].
Turning to `CCNCCCOc1ccc(Nc2nc(N)c(C(=O)c3ccc(OC)c(F)c3)s2)cc1` [Example 148, [4-Amino-2-[4-(3-ethylamino-propoxy)-phenylamino]-thiazol-5-yl]-(3-fluoro-4-methoxy-phenyl)methanone], the negative logarithm of the IC50 (pIC50) in assay [4] was 5.72; in assay [2], 7.17; in assay [3], 6.28.

The values are drawn from patent publication US6818663B2, “Diaminothiazoles” (Hoffmann-La Roches, priority 2002, dated 2004).
